What was measured:
[1] = system: damaged dentin of beagle dog's teeth; experiment: Dentin regeneration in dentin damage model; format: in vivo; conditions: 10 ug per tooth, 3 weeks after application, vs control group, FIG. 4
Procedure: Three beagle dogs (12-16 kg; […]) were anesthetized by inhalation of Geloran, intravenously injected with Zoletil (5 mg/kg) and Xylazine (0.2-0.5 mg/kg), and then treated with Lidocaine (Lidocaine 2% with 1:80,000 epinephrine). After damaging the dentin of the premolars and molar teeth in the mandible of the beagle dog using a dental bur, 10 ug of SEQ ID NO: 1 peptide of group 1 was treated per tooth. After 6 weeks, a beagle dog was sacrificed by administering an excessive amount (90-120 mg/kg) of pentobarbital. The tooth of the beagle dog was extracted, fixed with 10% formalin, calcium was removed by adding 5% formic acid, molded, and embedded in paraffin, and then a tissue section with a thickness of 5 μm were obtained, a obtained tissue section was stained with hematoxylin and eosin, and then analyzed using by an optical microscope equipped with a digital camera (LEICA ICC50 camera, Germany).
FIG. 4 is the result of histological evaluation 3 weeks after application of 10 ug of the novel peptide (SEQ ID NO: 1) after damaging the dentine of beagle dog's teeth in order to confirm that the novel peptide induces physiological dentin regeneration in a animal model of damaged dentin.

DSP = experiment: Western blot of DSP protein in human dental pulp cells; format: cell-based; conditions: 1, 10, and 50 ug, FIG. 3
Procedure: (§1) FIG. 3 is a result of confirming expressions of DSP and BSP proteins by Western blot after treating human dental pulp cells with the novel peptide (SEQ ID NO: 1) in a concentration-dependent manner (1, 10, and 50 ug) to confirm the effect of novel peptides on expressions of marker proteins for differentiation of odontoblasts, osteoblasts and cementoblasts.

DMP1 gene = experiment: DMP1 mRNA level by real-time PCR in human-derived mesenchymal stem cells; format: cell-based; conditions: compared to untreated control
Procedure: (§2) It was cultured at 37° C. in humid air containing 5% CO2 and used for the experiment. Human mesenchymal stem cells (hBMSCs) were purchased from Lonza (LONZA, Switzerland) and used. hBMSCs were cultured in a-MEM (Invitrogen) medium supplemented with 10% heat-inactivated bovine serum.
(§3) Total RNA of human dental pulp cells and mesenchymal stem cells was isolated using a TRIzol reagent. cDNA was synthesized using 2 μg of total RNA, 1 μl of reverse transcriptase, and 0.5 μg of oligo (dT). The synthesized cDNA was used for real-time polymerase chain reaction. The real-time polymerase chain reaction was performed in ABI PRISM 7500 sequence detection system (Applied Biosystems) using SYBR GREEN PCR Master Mix (Takara, Japan). The real-time polymerase chain reaction was performed at 94° C., 1 min; 95° C., 15 sec-60° C., 34 sec was performed under the condition of repeating 40 cycles. An analysis of the results was evaluated using a comparative cycle threshold (CT) method, and primer base sequences are listed in Table 9.
(§4) BSP and DMP1 genes are used as markers for differentiation of osteoblasts and cementoblasts, and are known as important genes for calcification of a bone and cementum. The effects of each group of peptides on BSP and DMP1 mRNA expression were confirmed by a real-time PCR (Tables 11 and 12).

BSP = experiment: Western blot of BSP protein in human dental pulp cells; format: cell-based; conditions: 1, 10, and 50 ug, FIG. 3
Procedure: as §1

BSP gene = experiment: BSP mRNA level by real-time PCR in human-derived mesenchymal stem cells; format: cell-based; conditions: compared to untreated control
Procedure: as §2, §3, §4

DSPP gene = experiment: DSPP mRNA level by real-time PCR in human dental pulp cells; format: cell-based; conditions: peptide 10 ug/ml, compared to untreated control
Procedure: Human pulp tissue cells were isolated from wisdom teeth of 10 adults (18-22 years old) at Seoul National University Dental Hospital. Specifically, all experiments were performed with the patient's consent after approval from the hospital's Institutional Review Board, and wisdom teeth are cut according to a method of Jung H S et al (J Mol Histol. (2011)), exposing the pulp and isolating the pulp with forceps. The isolated pulp was minced on both sides, placed in a 60 mm dish, covered with a cover slip, and then cultured in Dulbecco's Modified Eagle medium. It is known that human dental pulp cells can differentiate into odontoblasts, osteoblasts, cementoblasts and periodontal ligament cells under various conditions (Tissue Eng Part A. 2014 April; 20(7-8): 1342-51).
as §3
The effect of each group of peptides on DSPP mRNA expression was confirmed by real-time PCR (Table 10).

[2] = system: human dental pulp cells (hDPCs) transplanted into the subcutaneous tissue of mice with impaired immune systems; experiment: In vivo transplantation of hDPCs with HA/TCP and histological analysis
Procedure: Human dental pulp cells (hDPCs) were isolated and used for in vivo transplantation experiments. hDPCs (2×10^6 cells) were mixed with 100 mg of hydroxy apatite/tricalcium phosphate (HA/TCP) ceramic powder (Zimmer, USA) alone or along with peptides (10 μg) or 0.5% fibrin gel, and then transplanted into mice (NIH-bg-nu-xid; Harlan Laboratories, Indianapolis, IN) with damaged immune systems for 6 and 12 weeks. Thereafter, samples were harvested, fixed in 4% paraformaldehyde, decalcified in 10% EDTA (pH 7.4), embedded in paraffin, and stained with hematoxylin-eosin (H-E) (Vector Labs).

KYKAKKKNYK [SEQ ID NO: 1]
physiological dentin regeneration, histological evaluation [1]: physiological dentin was formed in the lower part the damaged dentine
expression of DSP protein (marker for differentiation of odontoblasts) (DSP): increased in a concentration-dependent manner
mRNA level of DMP1 gene, DMP1 gene expression, Average (DMP1 gene): 11.401 fold
expression of BSP protein (marker for differentiation of osteoblasts and cementoblasts) (BSP): increased in a concentration-dependent manner
mRNA level of BSP gene, BSP gene expression, Average (BSP gene): 2.892 fold
mRNA level of DSPP gene, Average (DSPP gene): 9.028 fold
periodontal ligament formation, hematoxylin-eosin histology ([2]; 10 ug peptide with hDPCs, 6 weeks after transplantation, vs hDPCs-only control, FIG. 6): periodontal ligament fiber bundle (black triangle) were formed
proportion of hard tissue formation ([2]; 10 ug peptide with hDPCs, 12 weeks after transplantation, vs hDPCs-only control, FIG. 5): increased
hard tissue (bone/cementum-like tissue) formation, hematoxylin-eosin histology ([2]; hDPCs with HA/TCP, 12 weeks after transplantation, FIG. 5): more similar hard tissue formation as the BMP-2 treated group compared to the control group
